Source: PubChem BioAssay (NCI)
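GI50 = concentration required for 50% inhibition of growth. Definition used: TGI = concentration required for complete inhibition of growth.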

Legend:
Assay in all cases: NCI-60 cell line screen, 384-well format
[1] = system: NCI-H226 lung
[2] = system: RXF 393 renal
[3] = system: HOP-92 NSCLC
[4] = system: U251 glioblastoma
[5] = system: HOP-62 NSCLC
[6] = system: EKVX NSCLC
[7] = system: SNB-75 CNS
[8] = system: BT-549 breast
[9] = system: NCI-H460 NSCLC
[10] = system: CAKI-1 renal
[11] = system: UACC-62 melanoma
[12] = system: OVCAR-4 ovarian
[13] = system: MOLT-4 leukemia
[14] = system: MALME-3M melanoma
[15] = system: MCF7 breast
[16] = system: M14 melanoma
[17] = system: SK-MEL-2 melanoma
[18] = system: SF-268 CNS
[19] = system: SK-MEL-28 melanoma
[20] = system: 786-0 renal
[21] = system: NCI/ADR-RES ovarian
[22] = system: NCI-H23 lung
[23] = system: OVCAR-5 ovarian
[24] = system: NCI-H522 lung
[25] = system: PC-3 prostate
[26] = system: RPMI-8226 leukemia
[27] = system: SF-295 CNS
[28] = system: COLO 205 colon
[29] = system: UACC-257 melanoma
[30] = system: OVCAR-8 ovarian
[31] = system: HT29 colon
[32] = system: SK-MEL-5 melanoma
[33] = system: UO-31 renal
[34] = system: A549 NSCLC
[35] = system: SNB-19 CNS
[36] = system: OVCAR-3 ovarian
[37] = system: HL-60(TB) leukemia
[38] = system: ACHN renal
[39] = system: SF-539 CNS
[40] = system: HCC-2998 colon
[41] = system: LOX IMVI melanoma
[42] = system: K-562 leukemia
[43] = system: CCRF-CEM leukemia
[44] = system: MDA-MB-468 breast
[45] = system: DU-145 prostate
[46] = system: TK-10 renal
[47] = system: IGROV1 ovarian

SMILES: C[C@@H](Nc1nc(N[C@H](C)C(F)(F)F)nc(-c2cccc(Cl)n2)n1)C(F)(F)F
- GI50 [1]: 84.7 µM
- TGI [1]: > 100 µM
- GI50 [2]: 24.2 µM
- TGI [2]: 58.8 µM
- GI50 [3]: 43 µM
- TGI [3]: > 100 µM
- GI50 [4]: 40 µM
- TGI [4]: > 100 µM
- GI50 [5]: 28.5 µM
- TGI [5]: > 65.4 µM
- GI50 [6]: > 100 µM
- TGI [6]: > 100 µM
- GI50 [7]: 29.5 µM
- TGI [7]: > 75.4 µM
- GI50 [8]: 32.5 µM
- TGI [8]: > 70.3 µM
- GI50 [9]: 36.4 µM
- TGI [9]: > 100 µM
- GI50 [10]: 33.6 µM
- TGI [10]: > 73.8 µM
- GI50 [11]: 38.6 µM
- TGI [11]: > 76.9 µM
- GI50 [12]: 21.7 µM
- TGI [12]: 55 µM
- GI50 [13]: > 100 µM
- TGI [13]: > 100 µM
- GI50 [14]: > 66 µM
- TGI [14]: > 100 µM
- GI50 [15]: 14.5 µM
- TGI [15]: > 100 µM
- GI50 [16]: > 100 µM
- TGI [16]: > 100 µM
- GI50 [17]: 14.6 µM
- TGI [17]: 30.2 µM
- GI50 [18]: 39.6 µM
- TGI [18]: > 100 µM
- GI50 [19]: > 100 µM
- TGI [19]: > 100 µM
- GI50 [20]: 33.2 µM
- TGI [20]: > 76.3 µM
- GI50 [21]: > 82.3 µM
- TGI [21]: > 100 µM
- GI50 [22]: > 49.9 µM
- TGI [22]: > 89.7 µM
- GI50 [23]: > 100 µM
- TGI [23]: > 100 µM
- GI50 [24]: > 100 µM
- TGI [24]: > 100 µM
- GI50 [25]: > 51.1 µM
- TGI [25]: > 80.9 µM
- GI50 [26]: > 75.8 µM
- TGI [26]: > 100 µM
- GI50 [27]: > 83.8 µM
- TGI [27]: > 100 µM
- GI50 [28]: > 100 µM
- TGI [28]: > 100 µM
- GI50 [29]: 98.4 µM
- TGI [29]: > 100 µM
- GI50 [30]: 47.2 µM
- TGI [30]: > 100 µM
- GI50 [31]: > 100 µM
- TGI [31]: > 100 µM
- GI50 [32]: 28.2 µM
- TGI [32]: > 100 µM
- GI50 [33]: > 100 µM
- TGI [33]: > 100 µM
- GI50 [34]: > 51.8 µM
- TGI [34]: > 83 µM
- GI50 [35]: > 82.4 µM
- TGI [35]: > 100 µM
- GI50 [36]: 28.8 µM
- TGI [36]: > 100 µM
- GI50 [37]: > 85.3 µM
- TGI [37]: > 100 µM
- GI50 [38]: > 100 µM
- TGI [38]: > 100 µM
- GI50 [39]: > 69.1 µM
- TGI [39]: > 100 µM
- GI50 [40]: > 80.1 µM
- TGI [40]: > 100 µM
- GI50 [41]: > 100 µM
- TGI [41]: > 100 µM
- GI50 [42]: > 100 µM
- TGI [42]: > 100 µM
- GI50 [43]: > 100 µM
- TGI [43]: > 100 µM
- GI50 [44]: 20.9 µM
- TGI [44]: > 90.2 µM
- GI50 [45]: 34.1 µM
- TGI [45]: > 100 µM
- GI50 [46]: > 52.4 µM
- TGI [46]: > 90.1 µM
- GI50 [47]: > 100 µM
- TGI [47]: > 100 µM

SMILES: Cc1cc(F)c(C(=O)Nc2cccc(-c3nncn3C(C)C)n2)cc1-n1cnc(C2CC2)c1
- GI50 [1]: 12.6 µM
- TGI [1]: 31.4 µM
- GI50 [2]: 10.3 µM
- TGI [2]: 25.2 µM
- GI50 [3]: 17.7 µM
- TGI [3]: > 82.9 µM
- GI50 [4]: 11.9 µM
- TGI [4]: > 81.6 µM
- GI50 [5]: 8.04 µM
- TGI [5]: 29.3 µM
- GI50 [6]: 5.8 µM
- TGI [6]: 22.1 µM
- GI50 [7]: 13.5 µM
- TGI [7]: 27.6 µM
- GI50 [8]: 11.2 µM
- TGI [8]: 23.6 µM
- GI50 [9]: 12.9 µM
- TGI [9]: 43 µM
- GI50 [10]: 12.6 µM
- TGI [10]: 31.4 µM
- GI50 [11]: 12.9 µM
- TGI [11]: 25.9 µM
- GI50 [12]: 17.2 µM
- TGI [12]: 38.5 µM
- GI50 [13]: 5.69 µM
- TGI [13]: 18.1 µM
- GI50 [14]: 15.2 µM
- TGI [14]: 35 µM
- GI50 [15]: 12.3 µM
- TGI [15]: 25.9 µM
- GI50 [16]: 14.5 µM
- TGI [16]: 28.7 µM
- GI50 [17]: 19.9 µM
- TGI [17]: 35.5 µM
- GI50 [18]: 15 µM
- TGI [18]: 47.7 µM
- GI50 [19]: 17.8 µM
- TGI [19]: 35 µM
- GI50 [20]: 15 µM
- TGI [20]: 40.4 µM
- GI50 [21]: 11.1 µM
- TGI [21]: 23.6 µM
- GI50 [22]: 4.62 µM
- TGI [22]: 16.8 µM
- GI50 [23]: 23.9 µM
- TGI [23]: > 80.5 µM
- GI50 [24]: 3.31 µM
- TGI [24]: 13.7 µM
- GI50 [25]: 15.5 µM
- TGI [25]: 30.2 µM
- GI50 [26]: 2.09 µM
- TGI [26]: 5.9 µM
- GI50 [27]: 15.4 µM
- TGI [27]: 98.9 µM
- GI50 [28]: 3.83 µM
- TGI [28]: 12.4 µM
- GI50 [29]: 16.7 µM
- TGI [29]: 31.2 µM
- GI50 [30]: 12 µM
- TGI [30]: 25.6 µM
- GI50 [31]: 22 µM
- TGI [31]: > 94.4 µM
- GI50 [32]: 6.96 µM
- TGI [32]: 19.3 µM
- GI50 [33]: 10.4 µM
- TGI [33]: 23.7 µM
- GI50 [34]: 8.05 µM
- TGI [34]: 66.6 µM
- GI50 [35]: 22.6 µM
- TGI [35]: > 100 µM
- GI50 [36]: 14.7 µM
- TGI [36]: 41.1 µM
- GI50 [37]: 6.26 µM
- TGI [37]: 18.3 µM
- GI50 [38]: 11.5 µM
- TGI [38]: 34.8 µM
- GI50 [39]: 14.5 µM
- TGI [39]: 42.6 µM
- GI50 [40]: 16.7 µM
- TGI [40]: 57.2 µM
- GI50 [41]: 13.7 µM
- TGI [41]: 28.9 µM
- GI50 [42]: 5.52 µM
- TGI [42]: 21.3 µM
- GI50 [43]: 7.73 µM
- TGI [43]: 20.2 µM
- GI50 [44]: 3.39 µM
- TGI [44]: 10.5 µM
- GI50 [45]: 6.87 µM
- TGI [45]: 27.8 µM
- GI50 [46]: 14.8 µM
- TGI [46]: > 68.2 µM
- GI50 [47]: 9.78 µM
- TGI [47]: 40.5 µM
